Experiment [1] concerns the target T1, first (BD1: amino acids K57-E168) bromodomain of BRD4 (Homo sapiens, UniProt O60885).
T1 construct: His-tagged first (BD1: amino acids K57-E168)
Briefly: TR-FRET bromodomain binding assay, BRD4 BD1. The settings on record: Ki calculated from IC50, probe Kd and probe concentration, read-out: TR-FRET Binding Ki: BRD4 (BDI_K57-E168). In outline:
(§1)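 His-tagged BRD4 BD1 (K57-E168) or BD2 ([…]) displacing an Alexa647-labelled BET-inhibitor probe in 20 mM sodium phosphate pH 6.0, 50 mM NaCl, 1 mM EDTA, 0.01% Triton X-100, 1 mM DTT.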

Experiment [2] deals with T2, second (BD2: amino acids E352-E168) bromodomain of BRD4 (Homo sapiens, UniProt O60885).
T2 construct: protocol
Nature of the experiment: TR-FRET bromodomain binding assay, BRD4 BD2. The settings on record: Ki calculated from IC50, probe Kd and probe concentration, read-out: TR-FRET Binding Ki: BRD4 (BDII_E352-M457). In outline: as §1

The mark [3] stands for this setting: TR-FRET assay protocol (A-G, compound concentration range).
Where [4] appears, read: TR-FRET assay protocol (D, E or G) per compound.

Like-named read-outs stand apart in the source and are kept apart here. Bounds are passed on as bounds.

As a reminder, the Ki is the equilibrium dissociation constant of an inhibitor or competing ligand from its target.

For the compound `CCS(=O)(=O)Nc1ccc(Oc2ccc(OC3CCN(C(=O)OC(C)(C)C)CC3)cc2F)c(-c2cn(C)c(=O)cc2OC2CCN(C(=O)OC(C)(C)C)CC2)c1` [Example 320, tert-butyl 4-[(5-{2-(4-{[1-(tert-butoxycarbonyl)piperidin-4-yl]oxy}-2-fluorophenoxy)-5-[(ethylsulfonyl)amino]phenyl}-1-methyl-2-oxo-1,2-dihydropyridin-4-yl)oxy]piperidine-1-carboxylate], the results for the inhibition constant (Ki) in experiment [1] (setting [3]) and in experiment [2] (setting [3]) were above 2380 nM and 275 nM, respectively.
Turning to `CCO/C=C/c1cc(=O)n(C)cc1-c1cc(S(C)(=O)=O)ccc1NCC1CC1` [Example 327, 5-{2-[(cyclopropylmethyl)amino]-5-(methylsulfonyl)phenyl}-4-[(E)-2-ethoxyethenyl]-1-methylpyridin-2(1H)-one], the inhibition constant (Ki) in experiment [1] (setting [3]) is 680 nM; in experiment [2] (setting [3]), 1110 nM.
For `CCS(=O)(=O)Nc1ccc(Oc2ccc(F)cc2F)c(-c2cn(C)c(=O)cc2-c2ccccc2O)c1` [Example 331, N-{4-(2,4-difluorophenoxy)-3-[4-(2-hydroxyphenyl)-1-methyl-6-oxo-1,6-dihydropyridin-3-yl]phenyl}ethanesulfonamide] the same measures were 164 nM and 551 nM.
The matching figures for `CCS(=O)(=O)Nc1ccc(Oc2ccc(F)cc2F)c(-c2cn(C)c(=O)cc2-c2cscc2C=O)c1` [Example 332, N-{4-(2,4-difluorophenoxy)-3-[4-(4-formylthiophen-3-yl)-1-methyl-6-oxo-1,6-dihydropyridin-3-yl]phenyl}ethanesulfonamide]: 1010 nM and 205 nM.
For `CCO/C=C\c1cc(=O)n(C)cc1-c1cc(S(C)(=O)=O)ccc1NCC1CC1` [Example 337, 5-{2-[(cyclopropylmethyl)amino]-5-(methylsulfonyl)phenyl}-4-[(Z)-2-ethoxyethenyl]-1-methylpyridin-2(1H)-one] the same measures were 611 nM and 1830 nM.
Turning to `CCOC(=O)Nc1cc(-c2cc(S(=O)(=O)CC)ccc2OCC2CC2)cn(C)c1=O` [Example 338, ethyl{5-[2-(cyclopropylmethoxy)-5-(ethylsulfonyl)phenyl]-1-methyl-2-oxo-1,2-dihydropyridin-3-yl}carbamate], the Ki in experiment [1] (setting [3]) was 114 nM; in experiment [2] (setting [3]), 702 nM.
Regarding `CCS(=O)(=O)c1ccc(OCC2CC2)c(-c2cc(NS(C)(=O)=O)c(=O)n(C)c2)c1` [Example 339, N-{5-[2-(cyclopropylmethoxy)-5-(ethylsulfonyl)phenyl]-1-methyl-2-oxo-1,2-dihydropyridin-3-yl}methanesulfonamide], the Ki was 172 nM in experiment [1] (setting [3]) and 971 nM in experiment [2] (setting [3]).
For `Cn1cc(-c2cc(S(C)(=O)=O)ccc2NCC2CC2)c(OC(C)(C)C(C)(C)O)cc1=O` [Example 341, 5-{2-[(cyclopropylmethyl)amino]-5-(methylsulfonyl)phenyl}-4-[(3-hydroxy-2,3-dimethylbutan-2-yl)oxy]-1-methylpyridin-2(1H)-one] the same measures were above 2380 nM and above 4080 nM.
For `CCOc1cc(=O)n(C)cc1-c1cc(NS(=O)(=O)c2ccc(Cl)cc2F)ccc1Oc1ccc(F)cc1F` [Example 348, 4-chloro-N-[4-(2,4-difluorophenoxy)-3-(4-ethoxy-1-methyl-6-oxo-1,6-dihydropyridin-3-yl)phenyl]-2-fluorobenzenesulfonamide], the Ki in experiment [1] (setting [3]) was 196 nM; in experiment [2] (setting [3]), 63.1 nM.
For `Cc1cccc(OCC2CC2)c1-c1ccc(=O)n(C)c1` [Example 356, 5-[2-(cyclopropylmethoxy)-6-methylphenyl]-1-methylpyridin-2(1H)-one] the same measures were 1390 nM and 752 nM.
`CCS(=O)(=O)c1ccc(OCC2CC2)c(-c2cc(N)c(=O)n(C)c2)c1` [Example 357, 3-amino-5-[2-(cyclopropylmethoxy)-5-(ethylsulfonyl)phenyl]-1-methylpyridin-2(1H)-one]: the values for the Ki in experiment [1] (setting [3]) and in experiment [2] (setting [3]) were 159 nM and 1420 nM, respectively.
For `CCS(=O)(=O)c1ccc(O[C@H]2CC[C@@](C)(OC)CC2)c(-c2ccc(=O)n(C)c2)c1` [Example 360, 5-{5-(ethylsulfonyl)-2-[(cis-4-methoxy-4-methylcyclohexyl)oxy]phenyl}-1-methylpyridin-2(1H)-one] the same measures were 127 nM and 700 nM.
As to `CCS(=O)(=O)c1ccc(OCC2CC2)c(-c2cc(NC(C)=O)c(=O)n(C)c2)c1` [Example 361, N-{5-[2-(cyclopropylmethoxy)-5-(ethylsulfonyl)phenyl]-1-methyl-2-oxo-1,2-dihydropyridin-3-yl}acetamide], the Ki in experiment [1] (setting [3]) was 600 nM; in experiment [2] (setting [3]), 1170 nM.
For the compound `CCS(=O)(=O)Nc1ccc(OCC2CC2)c(-c2ccc(=O)n(C)c2)c1C` [Example 365, N-[4-(cyclopropylmethoxy)-2-methyl-3-(1-methyl-6-oxo-1,6-dihydropyridin-3-yl)phenyl]ethanesulfonamide], the values for the Ki in experiment [1] (setting [3]) and in experiment [2] (setting [3]) were 1350 nM and above 4440 nM, respectively.
`CCS(=O)(=O)Nc1cc(-c2ccc(=O)n(C)c2)c(OCC2CC2)cc1C` [Example 366, N-[4-(cyclopropylmethoxy)-2-methyl-5-(1-methyl-6-oxo-1,6-dihydropyridin-3-yl)phenyl]ethanesulfonamide]: the Ki in experiment [1] (setting [3]) was 629 nM; in experiment [2] (setting [3]), 570 nM.
As to `CCS(=O)(=O)c1ccc(Oc2ccc(F)cc2F)c(-c2cn(C)c(=O)cc2Cl)c1` [Example 382, 4-chloro-5-[2-(2,4-difluorophenoxy)-5-(ethylsulfonyl)phenyl]-1-methylpyridin-2(1H)-one], the Ki is 317 nM in experiment [1] (setting [4]) and 276 nM in experiment [2] (setting [4]).
On to `CCOC(=O)N1CCC(Oc2ccc(NS(=O)(=O)CC)cc2-c2cn(C)c(=O)cc2OCC)CC1` [Example 388, ethyl 4-{2-(4-ethoxy-1-methyl-6-oxo-1,6-dihydropyridin-3-yl)-4-[(ethylsulfonyl)amino]phenoxy}piperidine-1-carboxylate], for which the Ki in experiment [1] (setting [4]) was 766 nM; in experiment [2] (setting [4]), 1420 nM.
For `CCOc1cc(=O)n(C)cc1-c1cc(NS(=O)(=O)CC)ccc1OC1CCN(C(C)=O)CC1` [Example 389, N-{4-[(1-acetylpiperidin-4-yl)oxy]-3-(4-ethoxy-1-methyl-6-oxo-1,6-dihydropyridin-3-yl)phenyl}ethanesulfonamide] the same measures were 1260 nM and 3990 nM.
Take `CCOc1cc(=O)n(C)cc1-c1cc(NS(=O)(=O)CC)ccc1OC1Cc2ccccc2C1` [Example 394, N-[4-(2,3-dihydro-1H-inden-2-yloxy)-3-(4-ethoxy-1-methyl-6-oxo-1,6-dihydropyridin-3-yl)phenyl]ethanesulfonamide]: the Ki in experiment [1] (setting [4]) was 272 nM; in experiment [2] (setting [4]), 516 nM.
In the case of `CCS(=O)(=O)c1ccc(Oc2ccc(F)cc2F)c(-c2cn(C)c(=O)cc2OCC(F)(F)F)c1` [Example 398], the results for the Ki in experiment [1] (setting [4]) and in experiment [2] (setting [4]) were 203 nM and 30.9 nM, respectively.
The matching figures for `CCOc1cc(=O)n(C)cc1-c1cc(N)ccc1Oc1ccc(F)cc1F` [Example 406, 5-[5-amino-2-(2,4-difluorophenoxy)phenyl]-4-ethoxy-1-methylpyridin-2(1H)-one]: 1550 nM and 567 nM.
For `CCOc1cc(=O)n(C)cc1-c1cc(S(C)(=O)=O)ccc1NCc1ccc(F)cc1F` [Example 409, 5-{2-[(2,4-difluorobenzyl)amino]-5-(methylsulfonyl)phenyl}-4-ethoxy-1-methylpyridin-2(1H)-one] the same measures were 2010 nM and 1100 nM.
For `CCOc1cc(=O)n(C)cc1-c1cc(NS(=O)(=O)CC)ccc1OC1CCN(c2ccc(C(F)(F)F)cc2)CC1` [Example 410, N-[3-(4-ethoxy-1-methyl-6-oxo-1,6-dihydropyridin-3-yl)-4-({1-[4-(trifluoromethyl)phenyl]piperidin-4-yl}oxy)phenyl]ethanesulfonamide] the same measures were 590 nM and 560 nM.
With `CCOc1cc(=O)n(C)cc1-c1cc(NC(=O)c2ccc(C(C)C)cc2)ccc1Oc1ccc(F)cc1F` [Example 413, N-[4-(2,4-difluorophenoxy)-3-(4-ethoxy-1-methyl-6-oxo-1,6-dihydropyridin-3-yl)phenyl]-4-(propan-2-yl)benzamide], the Ki in experiment [1] (setting [4]) is 181 nM; in experiment [2] (setting [4]), 148 nM.
For the compound `CCOc1cc(=O)n(C)cc1-c1cc(NC(=O)c2cnc(C)cn2)ccc1Oc1ccc(F)cc1F` [Example 414, N-[4-(2,4-difluorophenoxy)-3-(4-ethoxy-1-methyl-6-oxo-1,6-dihydropyridin-3-yl)phenyl]-5-methylpyrazine-2-carboxamide], the values for the inhibition constant Ki in experiment [1] (setting [4]) and in experiment [2] (setting [4]) were 61.4 nM and 38.9 nM, respectively.
Take `CCOc1cc(=O)n(C)cc1-c1cc(NS(=O)(=O)c2ccc(C(C)(C)C)cc2)ccc1Oc1ccc(F)cc1F` [Example 416, 4-tert-butyl-N-[4-(2,4-difluorophenoxy)-3-(4-ethoxy-1-methyl-6-oxo-1,6-dihydropyridin-3-yl)phenyl]benzenesulfonamide]: the Ki in experiment [1] (setting [4]) is 493 nM; in experiment [2] (setting [4]), 281 nM.
For the compound `CCOc1cc(=O)n(C)cc1-c1cc(NS(=O)(=O)c2ccc(Cl)cc2Cl)ccc1Oc1ccc(F)cc1F` [Example 417, 2,4-dichloro-N-[4-(2,4-difluorophenoxy)-3-(4-ethoxy-1-methyl-6-oxo-1,6-dihydropyridin-3-yl)phenyl]benzenesulfonamide], the Ki in experiment [1] (setting [4]) was 259 nM; in experiment [2] (setting [4]), 57.1 nM.

Source of the values: patent US9561231B2 (AbbVie Inc., priority 2012, dated 2017).
